Source: US7537765B2, “Inhibition of HIV-1 replication by disruption of the processing of the viral capsid-spacer peptide 1 protein” (priority 2003, dated 2009)
Where two headings read alike, the source gives them in different places.

How the values were obtained:
SIVmac251 = assay: Gag processing (western blot) in chronically infected H9/SIVmac251 cells; type: cell-based, SIV
Method: FIG. 2. […] Gag proteins were visualized using HIV-Ig (HIV-1) or monkey anti-SIVmac251 serum (HIV-2 and SIV; NIH AIDS Research and Reference Reagent Program).
In order to better define DSB's mechanism of action, a detailed examination was undertaken of the virus produced from HIV-1-infected cell lines treated with DSB. Briefly, H9 cells chronically infected with the HIV-1IIIB isolate were treated with DSB at 1 μg/mL for a period of 48 hrs. Indinavir was used as a control. At the 48 hr time-point, spent media was removed and fresh media containing compound was added. At 24, 48 and 72 hrs post fresh compound addition, both cells and supernatant were recovered for analysis. The level of virus in the culture supernatant was determined and western blots were used to characterize viral protein production in both cell-associated and cell-free virus. […] This defect took the form of an additional band in the western blots corresponding to p25 (FIG. 2). This p25 band results from the incomplete processing of the capsid CA-SP1 precursor. […] As discussed above, mutations at the p25 to p24 cleavage site that prevent processing are associated with defects in viral maturation and infectivity (Wiegers K. et al., J. Virol. 72:2846-54 (1998)).

[1] = system: HIV-1 NL4-3 SP1 point deletion mutants; assay: CA-SP1 processing of NL4-3 SP1 point deletion mutants in transfected HeLa cells (Western blot); type: cell-based
Method: To characterize the effect of deletion or substitution on viral particle production and Gag polyprotein processing, wild-type HIV-1 NL4-3 or SIVmac239 and respective mutant proviral DNAs were transfected into HeLa cells by employing FuGENE 6 transfection reagent (Roche). Briefly, cells were seeded into a 6-well plate (Corning) at a concentration of 0.5×10^5 per well the day before transfection to reach 60 to 80% confluence on the day of transfection. For each transfection, 3 μl of FuGENE 6 was diluted into 100 μl of serum-free DMEM followed by the addition of 1 μg of DNA. After gently mixing, the mixture of DNA-lipid complexes was gently added drop wise into the cells containing 2 ml of complete DMEM medium. Twenty-four hours post-transfection, medium containing DNA-FuGENE 6 complexes was removed, 2 ml of fresh DMEM was added into the transfected cells. […] The level of viral particle production for wild type NL4-3 and point deletion mutants was determined by p24 antigen capture ELISA (ZeptoMetrix, Buffalo, N.Y.). […]
Sensitivity to DSB was determined in experiments that characterized the effect of DSB on a late step in Gag processing, CA-SP1 cleavage.
Specifically, these assays measured the ability of DSB to disrupt CA-SP1 processing.

[2] = system: NL4-3 A366V/G357S double mutant; assay: Virus replication assay of re-engineered NL4-3 mutants in Jurkat T cells (reverse transcriptase activity); type: cell-based, HIV-1
Method: In order to more extensively map the viral genetic determinants for DSB resistance, additional experiments were performed to select for viruses in vitro that are drug resistant. Multiple parallel cultures of Jurkat T cells (5×10^5 each) were transfected with the proviral DNA clone pNL4-3 in the presence or absence of 10-50 ng/ml DSB. The cells were passaged every two days, and fresh drug was added at each passage. Virus replication was monitored by measuring reverse transcriptase activity in culture supernatants. Virus was isolated from culture supernatants harvested at selected timepoints, and genomic DNA was amplified by RT-PCR using primers that spanned the coding region between the N-terminus of CA and the N-terminus of RT. The amplified product was then sequenced using the same set of primers.
In one experiment, an A366V mutation was identified in the SP1 region of NL4-3 virus cultured in the presence of DSB (note: numbering is relative to the Gag polyprotein). Upon further passaging, a double mutant was identified that contained a G357S mutation in CA as well as the A366V mutation in SP1. The A366V mutation was identified previously in experiments selecting for resistant variants of the RF isolate. […] Since serine is present at this position in isolates (such as RF) that are sensitive to DSB, the CA G357S mutation alone is not sufficient to confer resistance to DSB. […]

[3] = system: NNRTI-resistant HIV-1 isolates; assay: NNRTI-resistant HIV-1 isolates in MT-2 cells, cell viability (XTT) endpoint; type: cell-based; conditions: X4, MT-2 cells, read-out: IC50
Method: The activity of DSB was tested against a panel of HIV-1 isolates resistant to approved drugs. These viruses were obtained from the NIH AIDS Research and Reference Reagent Program. Assays were performed using virus propagated in PBMCs with a p24 endpoint (above), or using cell line targets (MT-2 cells) and a cell killing endpoint. The MT-2 assay format was as follows. Serial dilutions of DSB, or each approved drug, were prepared in 96 well plates. To each sample well was added media containing MT-2 cells at 3×10^5 cells/mL and virus inoculum at a concentration necessary to result in 80% killing of the cell targets at 5 days post-infection (PI). On day 5 post-infection, virus-induced cell killing was determined by the XTT method and the inhibitory activity of the compound was determined.

HIV = conditions: chronically-infected cells, Kanamoto et al.; cited from earlier work

C=C(C)[C@@H]1CC[C@]2(C(=O)O)CC[C@]3(C)[C@H](CC[C@@H]4[C@@]5(C)CC[C@H](OC(=O)CC(C)(C)C(=O)O)C(C)(C)[C@@H]5CC[C@]43C)[C@@H]12 [DSB, 3-O-(3′,3′-dimethylsuccinyl)betulinic acid]
antiviral activity (SIVmac251; SIV): lack of antiviral activity | Gag processing (SIVmac251; SIV chronically infected cell line, 1 μg/mL): normal Gag processing | effect on CA-SP1 processing ([1]; point deletions starting with residue T372 and extending away from the cleavage site, 1 μg/ml): fully sensitive to DSB-induced disruption of CA-SP1 processing | effect on CA-SP1 processing ([1]; single residue deletion at any of positions E365 through V370, 1 μg/ml): significantly reduces the affect of DSB on CA-SP1 processing | virus replication [2]: replicated efficiently in the absence or presence of DSB | IC50 ([3]; isolate 3, NNRTI-resistant, Y181C): 1 nM | IC50 ([3]; isolate 4, NNRTI-resistant, K103N Y181C): 1.3 nM | release of virus (HIV): inhibits release of virus from chronically-infected cells
